ChEMBL document CHEMBL1201862, “PubChem BioAssay data set” (2004)
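96-well plates; 48 h exposure; 5 concentrations. Endpoints by linear interpolation between flanking doses. Not reached: highest tested concentration assigned. At the GI50, growth is halved.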 Active and inactive are the calls of the source. Cut-off read from the data, not from the text of the source: active = GI50 up to about 1.1 µM and inactive = higher.

Key:
Experiment in all cases: growth of human tumour cells (NCI), 48 h
HCT-15 = test system: HCT-15
MCF7 = test system: MCF7
KM12 = test system: KM12
SF-295 = test system: SF-295
IGROV-1 = test system: IGROV-1
NCI-H23 = test system: NCI-H23
DU-145 = test system: DU-145
LOX IMVI = test system: LOX IMVI
HOP-92 = test system: HOP-92
RXF 393 = test system: RXF 393
MDA-MB-231 = test system: MDA-MB-231
CAKI-1 = test system: CAKI-1
UACC-62 = test system: UACC-62
CCRF-CEM = test system: CCRF-CEM
SK-MEL-28 = test system: SK-MEL-28
K562 = test system: K562
NCI-H226 = test system: NCI-H226
TK-10 = test system: TK-10
PC-3 = test system: PC-3
RPMI-8226 = test system: RPMI-8226
SR = test system: SR
SF-539 = test system: SF-539
EKVX = test system: EKVX
UACC-257 = test system: UACC-257
BT-549 = test system: BT-549
SF-268 = test system: SF-268
OVCAR-4 = test system: OVCAR-4
SK-OV-3 = test system: SK-OV-3
HOP-62 = test system: HOP-62
M14 = test system: M14
ACHN = test system: ACHN
HCC 2998 = test system: HCC 2998
OVCAR-8 = test system: OVCAR-8
COLO 205 = test system: COLO 205
MOLT-4 = test system: MOLT-4
Hs-578T = test system: Hs-578T
786-0 = test system: 786-0
UO-31 = test system: UO-31
SNB-75 = test system: SNB-75
SW-620 = test system: SW-620
HL-60 = test system: HL-60
NCI-H460 = test system: NCI-H460
U-251 = test system: U-251
NCI/ADR-RES = test system: NCI/ADR-RES
SNB-19 = test system: SNB-19
T47D = test system: T47D
HCT-116 = test system: HCT-116
HT-29 = test system: HT-29
SK-MEL-5 = test system: SK-MEL-5
SK-MEL-2 = test system: SK-MEL-2
MDA-MB-435 = test system: MDA-MB-435
A549 = test system: A549
OVCAR-3 = test system: OVCAR-3
OVCAR-5 = test system: OVCAR-5
SN12C = test system: SN12C
A498 = test system: A498
MDA-N = test system: MDA-N

With `OC(c1ccc(C(F)(F)F)cc1)C(F)(F)c1nc2ccccc2o1` (stereo not given) the GI50 (HCT-15) was > 100 µM, the GI50 (MCF7) was > 100 µM (inactive) and the GI50 (KM12) was > 100 µM (inactive). The GI50 (SF-295) was > 100 µM (inactive), the GI50 (IGROV-1) was > 100 µM (inactive) and the GI50 (NCI-H23) was > 100 µM (inactive). The GI50 (DU-145) was > 100 µM (inactive), the GI50 (LOX IMVI) was > 100 µM (inactive) and the GI50 (HOP-92) was > 100 µM (inactive). The GI50 (RXF 393) was > 100 µM (inactive), the GI50 (MDA-MB-231) was > 100 µM (inactive) and the GI50 (CAKI-1) was > 100 µM (inactive). For the same compound, the GI50 (UACC-62) was > 100 µM (inactive), the GI50 (CCRF-CEM) was > 100 µM (inactive) and the GI50 (SK-MEL-28) was > 100 µM (inactive). For the same compound, the GI50 (K562) was 56.8 µM (inactive), the GI50 (NCI-H226) was > 100 µM (inactive) and the GI50 (TK-10) was > 100 µM (inactive). The GI50 (PC-3) was > 100 µM (inactive), the GI50 (RPMI-8226) was > 100 µM (inactive) and the GI50 (SR) was > 100 µM (inactive). The GI50 (SF-539) was > 100 µM (inactive), the GI50 (EKVX) was > 100 µM (inactive) and the GI50 (UACC-257) was > 100 µM (inactive). The GI50 (BT-549) was > 100 µM (inactive), the GI50 (SF-268) was > 100 µM (inactive) and the GI50 (OVCAR-4) was > 100 µM (inactive). For the same compound, the GI50 (SK-OV-3) was > 100 µM (inactive), the GI50 (HOP-62) was > 100 µM (inactive) and the GI50 (M14) was > 100 µM (inactive). The GI50 (ACHN) was > 100 µM (inactive), the GI50 (HCC 2998) was > 100 µM (inactive) and the GI50 (OVCAR-8) was > 100 µM (inactive). For the same compound, the GI50 (COLO 205) was > 100 µM (inactive), the GI50 (MOLT-4) was > 100 µM (inactive) and the GI50 (Hs-578T) was > 100 µM (inactive). For the same compound, the GI50 (786-0) was > 100 µM (inactive), the GI50 (UO-31) was > 100 µM (inactive) and the GI50 (SNB-75) was > 100 µM (inactive). The GI50 (SW-620) was > 100 µM (inactive), the GI50 (HL-60) was > 100 µM (inactive) and the GI50 (NCI-H460) was > 100 µM (inactive). The GI50 (U-251) was > 100 µM (inactive), the GI50 (NCI/ADR-RES) was > 100 µM (inactive) and the GI50 (SNB-19) was > 100 µM (inactive). The GI50 (T47D) was > 100 µM (inactive), the GI50 (HCT-116) was > 100 µM (inactive) and the GI50 (HT-29) was > 100 µM (inactive). For the same compound, the GI50 (SK-MEL-5) was > 100 µM (inactive), the GI50 (SK-MEL-2) was > 100 µM (inactive) and the GI50 (MDA-MB-435) was > 100 µM (inactive).
With `O=c1[nH]nc(Cn2c3ccc(Br)cc3c3nc4ccccc4nc32)n1C1CCCCC1` the GI50 (HCT-15) was > 100 µM, the GI50 (MCF7) was 43.7 µM (inactive) and the GI50 (KM12) was 54 µM (inactive). For the same compound, the GI50 (SF-295) was 32.7 µM (inactive), the GI50 (A549) was 43.6 µM (inactive) and the GI50 (IGROV-1) was > 100 µM (inactive). For the same compound, the GI50 (OVCAR-3) was 23.3 µM (inactive), the GI50 (NCI-H23) was 12.9 µM (inactive) and the GI50 (DU-145) was 32 µM (inactive). For the same compound, the GI50 (LOX IMVI) was < 0.01 µM (active), the GI50 (HOP-92) was 46.3 µM (inactive) and the GI50 (RXF 393) was 23.8 µM (inactive). For the same compound, the GI50 (MDA-MB-231) was > 100 µM (inactive), the GI50 (CAKI-1) was > 100 µM (inactive) and the GI50 (UACC-62) was 21.5 µM (inactive). For the same compound, the GI50 (SK-MEL-28) was 19.3 µM (inactive), the GI50 (K562) was 20.7 µM (inactive) and the GI50 (NCI-H226) was 59.4 µM (inactive). The GI50 (TK-10) was 29.8 µM (inactive), the GI50 (PC-3) was 16.2 µM (inactive) and the GI50 (RPMI-8226) was 21.3 µM (inactive). The GI50 (SR) was 2.08 µM (inactive), the GI50 (SF-539) was 13.3 µM (inactive) and the GI50 (EKVX) was 90.8 µM (inactive). For the same compound, the GI50 (UACC-257) was 26.2 µM (inactive), the GI50 (BT-549) was 42.3 µM (inactive) and the GI50 (SF-268) was 40 µM (inactive). For the same compound, the GI50 (OVCAR-4) was 18.6 µM (inactive), the GI50 (SK-OV-3) was 87.1 µM (inactive) and the GI50 (OVCAR-5) was 34.2 µM (inactive). The GI50 (HOP-62) was 17.7 µM (inactive), the GI50 (M14) was 35.1 µM (inactive) and the GI50 (ACHN) was > 100 µM (inactive). The GI50 (HCC 2998) was 54.6 µM (inactive), the GI50 (OVCAR-8) was 12.8 µM (inactive) and the GI50 (SN12C) was > 100 µM (inactive). For the same compound, the GI50 (COLO 205) was 3.9 µM (inactive), the GI50 (MOLT-4) was < 0.01 µM (active) and the GI50 (786-0) was 25.2 µM (inactive). The GI50 (UO-31) was > 100 µM (inactive), the GI50 (SNB-75) was > 100 µM (inactive) and the GI50 (SW-620) was 52.7 µM (inactive). The GI50 (NCI-H460) was 29.4 µM (inactive), the GI50 (U-251) was 30.5 µM (inactive) and the GI50 (NCI/ADR-RES) was > 100 µM (inactive). The GI50 (A498) was 32.3 µM (inactive), the GI50 (SNB-19) was > 100 µM (inactive) and the GI50 (T47D) was 57.9 µM (inactive). For the same compound, the GI50 (HCT-116) was 70.1 µM (inactive), the GI50 (HT-29) was 36.1 µM (inactive) and the GI50 (SK-MEL-5) was 36.9 µM (inactive). For the same compound, the GI50 (SK-MEL-2) was 60.7 µM (inactive), the GI50 (MDA-N) was 75.3 µM (inactive) and the GI50 (MDA-MB-435) was 28.1 µM (inactive).
